Reference: US11332459B2 (TEIJIN PHARMA LIMITED, priority 2017, dated 2022)

The compounds below were run against T1, human TRPC6 (Homo sapiens, UniProt Q9Y210) (assay: TRPC6 calcium flux assay (FLIPR, OAG-stimulated calcium influx)). Settings: HEK293 cells stably transfected with human TRPC6, read-out: hTRPC6 Potency.
T1 construct: expressed in transfected cells
T1 sequence (Q9Y210 1-931): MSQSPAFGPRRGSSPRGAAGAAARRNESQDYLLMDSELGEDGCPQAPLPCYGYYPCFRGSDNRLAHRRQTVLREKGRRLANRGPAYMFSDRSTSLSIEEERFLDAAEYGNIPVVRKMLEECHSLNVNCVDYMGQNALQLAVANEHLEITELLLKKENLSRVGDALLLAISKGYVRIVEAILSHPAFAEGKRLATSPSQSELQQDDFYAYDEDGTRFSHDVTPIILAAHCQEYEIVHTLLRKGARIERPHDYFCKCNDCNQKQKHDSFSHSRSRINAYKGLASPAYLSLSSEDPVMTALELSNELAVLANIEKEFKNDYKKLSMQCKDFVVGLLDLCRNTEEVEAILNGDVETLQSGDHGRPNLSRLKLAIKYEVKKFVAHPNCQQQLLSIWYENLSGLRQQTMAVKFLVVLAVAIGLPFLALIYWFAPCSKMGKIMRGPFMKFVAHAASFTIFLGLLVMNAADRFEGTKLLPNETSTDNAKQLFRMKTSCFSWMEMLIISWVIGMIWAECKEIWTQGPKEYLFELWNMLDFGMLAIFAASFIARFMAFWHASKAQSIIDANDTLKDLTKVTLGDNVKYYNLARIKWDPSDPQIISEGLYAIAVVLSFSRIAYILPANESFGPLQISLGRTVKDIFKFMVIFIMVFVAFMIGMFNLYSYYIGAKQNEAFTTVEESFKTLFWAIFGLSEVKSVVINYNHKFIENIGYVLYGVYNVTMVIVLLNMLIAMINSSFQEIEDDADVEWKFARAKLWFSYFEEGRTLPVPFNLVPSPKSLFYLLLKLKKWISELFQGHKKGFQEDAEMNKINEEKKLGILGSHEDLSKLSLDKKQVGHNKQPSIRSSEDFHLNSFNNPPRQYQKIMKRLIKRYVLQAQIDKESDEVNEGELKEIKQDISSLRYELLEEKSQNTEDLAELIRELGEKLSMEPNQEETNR
Assay type: cell-based
Summary of the method: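 IC50 derived by plotting background-corrected peak fluorescence (180 s window, normalized to OAG-triggered signal vs buffer) against dose. Stable human TRPC6 HEK293 line was dye-loaded, exposed to compound 25 min, then challenged with 50 uM final OAG in 2 mM Ca2+ HEPES buffer pH 7.2, 0.5% DMSO.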

**Q.** Which IC50 does the source give for `N[C@@H]1CCCN(c2nc3ccccc3n2Cc2cccc(Cl)c2)C1` [Example 378, (R)-1-(1-(3-chlorobenzyl)-1H-benzo[d]imidazol-2-yl)piperidin-3-amine] here?
**A.** 3080 nM

**Q.** For `COc1ccc(Cn2c(N3CCC[C@@H](N)C3)nc3ccccc32)cc1Cl` [Example 393, (R)-1-(1-(3-chloro-4-methoxybenzyl)-1H-benzo[d]imidazol-2-yl)piperidin-3-amine], which IC50 is on record?
**A.** 5050 nM

**Q.** With `N[C@@H]1CN(c2nc3ccccc3n2CC(=O)N2CCC2)CC[C@H]1F` [Example 520, 2-(2-((3R,4R)-3-amino-4-fluoropiperidin-1-yl)-1H-benzo[d]imidazol-1-yl)-1-(azetidin-1-yl)ethan-1-one] as the compound, how does the IC50 read?
**A.** 686 nM

**Q.** Which IC50 does the source give for `N#Cc1ccc(Cn2c(N3CCC[C@H](N)C3)nc3cc(F)cc(F)c32)nc1` [Example 62, (S)-6-((2-(3-aminopiperidin-yl)-5,7-difluoro-1H-benzo[d]imidazol-1-yl)methyl)nicotinonitrile] here?
**A.** 60.3 nM

**Q.** For `N#Cc1ccc(Cn2c(N3CC[C@H](F)[C@H](N)C3)nc3c(Cl)cccc32)cc1` [Example 409], which IC50 is on record?
**A.** 1.04 nM

**Q.** For `N[C@@H]1CN(c2nc3cc(F)c(F)cc3n2Cc2noc(C3CC3)n2)CC[C@H]1F` [Example 578, (3R,4R)-1-(1-((5-cyclopropyl-1,2,4-oxadiazol-3-yl)methyl)-5,6-difluoro-1H-benzo[d]imidazol-2-yl)-4-fluoropiperidin-3-amine], which IC50 is on record?
**A.** 251 nM

**Q.** Which IC50 does the source give for `NC(=O)c1cnc(Cn2c(N3CC[C@@H](F)[C@H](N)C3)nc3ccc(C(F)(F)F)cc32)cn1` [Example 134, 5-((2-((3R,4R)-3-amino-4-fluoro-1-piperidinyl)-6-(trifluoromethyl)-1H-benzimidazol-1-yl)methyl)-2-pyrazinecarboxamide] here?
**A.** 4.71 nM

**Q.** For `CN(CC1CCS(=O)(=O)C1)C(=O)Cn1c(N2CC[C@@H](F)[C@H](N)C2)nc2cc(F)c(F)cc21` (mixture of isomers) [Example 652, 2-(2-((3R,4R)-3-amino-4-fluoropiperidin-1-yl)-5,6-difluoro-1H-benzo[d]imidazol-1-yl)-N-((1,1-dioxidotetrahydrothiophen-3-yl)methyl)-N-methylacetamide], which IC50 is on record?
**A.** > 3750 nM

**Q.** For `COc1ccc2nc(N3CCC[C@H](N)C3)n(Cc3ccc(C#N)cn3)c2c1` [Example 142, (S)-6-((2-(3-aminopiperidin-1-yl)-6-methoxy-1H-benzo[d]imidazol-1-yl)methyl)nicotinonitrile 2,2,2-trifluoroacetate], which IC50 is on record?
**A.** 13.8 nM

**Q.** For `N#Cc1ccc(Cn2c(N3CC[C@@H](F)[C@H](N)C3)nc3cc(C(F)(F)F)c(F)cc32)nc1` [Example 21, 6-((2-((3R,4R)-3-amino-4-fluoropiperidin-1-yl)-6-fluoro-5-(trifluoromethyl)-1H-benzo[d]imidazol-1-yl)methyl)nicotinonitrile], which IC50 is on record?
**A.** 0.658 nM

**Q.** Which IC50 does the source give for `N#Cc1ccc(Cn2c(N3CCC[C@@H](N)C3)nc3ccccc32)cc1` [Example 162, (R)-4-((2-(3-aminopiperidin-1-yl)-1H-benzo[d]imidazol-1-yl)methyl)benzonitrile] here?
**A.** 257 nM

**Q.** For `C[C@@H](c1cccc(Cl)c1)n1c(N2CC[C@@H](F)[C@H](N)C2)nc2cc(F)c(F)cc21` [Example 327, (3R,4R)-1-(1-((1S)-1-(3-chlorophenyl)ethyl)-5,6-difluoro-1H-benzimidazol-2-yl)-4-fluoro-3-piperidinamine], which IC50 is on record?
**A.** 1370 nM

**Q.** For `N#Cc1ccc(Cn2c(N3C[C@@H]4C[C@]4(CN)C3)nc3ccccc32)cc1` [Example 183, 4-((2-((1S,5R)-1-(aminomethyl)-3-azabicyclo[3.1.0]hexan-3-yl)-1H-benzo[d]imidazol-1-yl)methyl)benzonitrile], which IC50 is on record?
**A.** 655 nM

**Q.** How did the IC50 turn out when `CC1(CN)CCN(c2nc3ccccc3n2Cc2ccc(C#N)cc2)C1` (racemic) [Example 164, 4-((2-(3-(aminomethyl)-3-methylpyrrolidin-1-yl)-1H-benzo[d]imidazol-1-yl)methyl)benzonitrile] was run?
**A.** 253 nM

**Q.** How did the IC50 turn out when `N#Cc1ccc(Cn2c(N3CC[C@@H](O)[C@H](N)C3)nc3ccc(Cl)cc32)nc1` [Example 152, 6-((2-((3R,4R)-3-amino-4-hydroxypiperidin-1-yl)-6-chloro-1H-benzo[d]imidazol-1-yl)methyl)nicotinonitrile] was run?
**A.** 67.7 nM

**Q.** For `N#Cc1ccc(Cn2c(N3CCC[C@@H](N)C3)nc3ccccc32)c(F)c1` [Example 383, (R)-4-((2-(3-aminopiperidin-1-yl)-1H-benzo[d]imidazol-1-yl)methyl)-3-fluorobenzonitrile], which IC50 is on record?
**A.** 319 nM

**Q.** `C[C@H]1CCCN1C(=O)Cn1c(N2CC[C@@H](F)[C@H](N)C2)nc2ccc(F)cc21` [Example 682, 2-(2-((3R,4R)-3-amino-4-fluoropiperidin-1-yl)-6-fluoro-1H-benzo[d]imidazol-1-yl)-1-((S)-2-methylpyrrolidin-1-yl)ethan-1-one] was tested. Which IC50 did it give?
**A.** 259 nM

**Q.** For `CC(c1cccc(C#N)c1)n1c(N2CC[C@@H](F)[C@H](N)C2)nc2cc(F)c(F)cc21` (mixture of isomers) [Example 302, 3-(1-(2-((3R,4R)-3-amino-4-fluoropiperidin-1-yl)-5,6-difluoro-1H-benzo[d]imidazol-1-yl)ethyl)benzonitrile], which IC50 is on record?
**A.** 101 nM

**Q.** With `N#Cc1ccc(Cn2c(N3CC[C@@H](F)[C@H](N)C3)nc3cc(F)cc(F)c32)nc1` [Example 64, 6-((2-((3R,4R)-3-amino-4-fluoropiperidin-1-yl)-5,7-difluoro-1H-benzo[d]imidazol-1-yl)methyl)nicotinonitrile] as the compound, how does the IC50 read?
**A.** 132 nM

**Q.** Which IC50 does the source give for `CCN(CC(C)C#N)C(=O)Cn1c(N2CC[C@@H](F)[C@H](N)C2)nc2cc(F)c(F)cc21` (mixture of isomers) [Example 237, 2-(2-((3R,4R)-3-amino-4-fluoropiperidin-1-yl)-5,6-difluoro-1H-benzo[d]imidazol-1-yl)-N-(2-cyanopropyl)-N-ethylacetamide] here?
**A.** 223 nM

**Q.** Which IC50 does the source give for `CC1(O)CCN(C(=O)Cn2c(N3CC[C@@H](F)[C@H](N)C3)nc3cc(F)c(F)cc32)C1` (stereo partly drawn) [Example 648, 2-(2-((3R,4R)-3-amino-4-fluoropiperidin-1-yl)-5,6-difluoro-1H-benzo[d]imidazol-1-yl)-1-(3-hydroxy-3-methylpyrrolidin-1-yl)ethanone] here?
**A.** 3350 nM

**Q.** Which IC50 does the source give for `N#Cc1ccc(Cn2c(N3CC[C@@H](F)[C@H](N)C3)nc3cnccc32)cc1` [Example 412, 4-((2-((3R,4R)-3-amino-4-fluoropiperidin-1-yl)-1H-imidazo[4,5-c]pyridin-1-yl)methyl)benzonitrile] here?
**A.** 322 nM

**Q.** For `N[C@@H]1CN(c2nc3ccc(F)cc3n2CC(=O)NCC(F)(F)F)CC[C@H]1F` [Example 661, 2-(2-((3R,4R)-3-amino-4-fluoropiperidin-1-yl)-6-fluoro-1H-benzo[d]imidazol-1-yl)-N-(2,2,2-trifluoroethyl)acetamide], which IC50 is on record?
**A.** 279 nM

**Q.** For `COc1ccc2c(c1)nc(N1CCC(F)(F)[C@H](N)C1)n2Cc1ccc(C#N)cn1` [Example 137, 6-((2-((3R)-3-amino-4,4-difluoro-1-piperidinyl)-5-methoxy-1H-benzimidazol-1-yl)methyl)-3-pyridinecarbonitrile], which IC50 is on record?
**A.** 36.2 nM

**Q.** For `CN(CC(F)(F)F)C(=O)Cn1c(N2CC[C@H](F)[C@H](N)C2)nc2ccc(F)cc21` (single isomer, unassigned) [Example 466], which IC50 is on record?
**A.** 103 nM
